This passage reports Ki and GI50 results from US20240262822A1, “WDR5 INHIBITORS AND MODULATORS” (Vanderbilt University, priority 2021, published 2024).

One assay deals with T1, WDR5 (Homo sapiens, UniProt P61964).
T1 construct: WDR5-His Tag (A23, residues 24-334) is expressed and purified in our lab; made in house
The assay can be described thus: Time Resolved-Fluorescence Energy Transfer (TR-FRET) competition assay, displacement of 10mer-Thr-FAM probe from His-tagged WDR5. As to conditions: WDR5-His tag 2 nM, 10mer-Thr-FAM 150 nM, 60 minutes at room temperature. The assay is classed as binding. An excerpt:
Excess 10mer-Thr-FAM probe was utilized with His-tagged WDR5 in conjunction with a commercial anti-His antibody containing a Terbium label. The LanthaScreen™ Elite Tb-anti-HIS Antibody from ThermoFisher Scientific was used for this purpose. This Tb-anti-HIS has an excitation/emission of 340 nm and 490 nm, respectively. The 10mer-Thr-FAM probe when bound to WDR5 will undergo a FRET interaction with the Tb-anti-HIS and emit at 520 nm. […] WDR5-His Tag (A23, residues 24-334) is expressed and purified in our lab in sufficient quantities for screening. 10mer-Thr-FAM peptide is used at 150 nM. WDR5-His tag protein is used at 2 nM. A source plate is prepared using an Echo Liquid Handler, which distributes the compounds to the assay plate (white, flat-bottom; OptiPlate) in a 10-point, 5-fold dilution schemes with a top concentration of 5 μM, in a final volume of 20 μL. A final target (WDR5)/Tb-Ab concentration of 2 nM/1 nM is dispensed from appropriate stock solutions, respectively. The final DMSO concentration in each well of the assay plate is 1% or lower. The plate is covered, shielded from light, and incubated for 60 minutes at room temperature with rocking. 10mer-Thr-FAM and Anti-His terbium antibody fluorescence is then measured on a Biotek Cytation 3 at excitation wavelength of 340 nm, and emission wavelengths of 495 nm and 520 nm. Working buffer conditions contain 1× Phosphate Buffered Saline, 300 mM NaCl, 0.5 mM TCEP, 0.1% CHAPS, at pH 7.2. TR-FRET signal is plotted and IC50 and Ki values are calculated according to the formula of Wang Z. FEBS Lett (1996) 3, 245.
where […] is the concentration of the free inhibitor at 50% inhibition, [L]50 is the concentration of the free labeled ligand at 50% inhibition, [P]0 is the concentration of the free protein at 0% inhibition, Kd represents the dissociation constant of the FITC-MLL or 10mer-Thr-FAM probe for WDR5. Total fluorescence is also measured, to rule out compounds that are inherently fluorescent or able to act as quenchers in the assay. TR-FRET binding assay

The subject of assay [1] is MV4:11 human cancer cell lines. The assay can be described thus: Cellular viability / anti-proliferative activity, CellTiter-Glo, 5 day protocol. The assay is classed as cell-based. As to conditions: 5 day incubation. On the procedure: Anti-proliferative activity using MLL-harboring cell lines. MV-4-11 and K562 cells are grown in IMDM media supplemented with 10% FBS and 1% penicillin/streptomycin, Molm-13 cells are cultured in RPMI-1640 media supplemented with 10% FBS and 1% penicillin/streptomycin. Viability assays are performed by dispensing 200 cells at 7200 cells/mL into each well of an opaque 384-well plate and adding compounds at the indicated concentrations in a final volume of 32 μL and a final concentration of DMSO of 0.3% for all samples. A certain range of compound concentrations is made through a series of 2-fold dilutions starting 30 μM at the highest, total 22 dilutions. After a set incubation period, 5 day protocol, the viability of cells in each well is assessed using the CellTiter-Glo assay (Promega), read on a 96 Microplane Luminometer (Cytation 3, BioTek). Serial dilutions of each cell type are performed in all assays to generate standard curves and the final densities of cells are determined within the dynamic range of the instrument. GI50 values are calculated based on XLfit software (IDBS, Guildford, UK) with Sigmoidal Dose-Response Model. Each compound is tested in minimum of two replicates. Data are expressed as mean.
In general terms: ATP-based viability assays read luminescence as a measure of living cells.

Where [2] appears, read: read-out: Ki for additional WDR5 inhibitor compounds for Inhibition of WDR5 by TR-FRET assay.
Setting [3] is: Homo sapiens, MV4-11, 120 h, MV4;11 cells, read-out: GI50 for additional WDR5 inhibitor compounds on cellular proliferation of MV4;11 human cancer cell lines.
The mark [4] stands for this setting: Homo sapiens, 120 h, MV4;11 cells, read-out: GI50 for additional WDR5 inhibitor compounds on cellular proliferation of MV4;11 human cancer cell lines.
The mark [5] stands for this setting: read-out: Ki for Exemplified Compounds for Inhibition of WDR5 by TR-FRET assay.
Where [6] appears, read: Homo sapiens, MV4-11, 120 h, MV4:11 cells, read-out: GI50 for representative compounds on cellular proliferation of MV4:11 human cancer cell lines.

Each structure is given as a SMILES string. Read-outs that look alike come from different tables or passages of the source. Where only a bound is given, the exact number is not on record here.

A word on the Ki: it is the dissociation constant of the complex between target and ligand, obtained from inhibition or displacement. For the compound `COc1cc(N(C)C)c2nccc(N3CCc4c(cc(Cn5ccnc5)cc4-c4cn(C)nc4C(F)(F)F)C3=O)c2c1` [Compound B-35], on WDR5 (setting [2]), the Ki is under 0.02 nM. The GI50 in assay [1] (setting [3]) turned out to be 76 nM.
On the same counts, the results for `CCc1cc(C2CCOCC2)c2nccc(N3CCc4c(cc(Cn5ccnc5)cc4-c4cn(C)nc4C(F)(F)F)C3=O)c2c1` [Compound B-36] are under 0.02 nM and 23 nM.
For the compound `CNC(=O)c1cc(OC)cc2c(N3CCc4c(cc(Cn5ccnc5)cc4-c4cn(C)nc4C(F)(F)F)C3=O)ccnc12` [Compound B-42], the GI50 in assay [1] (setting [3]) was under 20 nM.
On to `CCc1cc(N2CCN(C3COC3)C(=O)C2)c2nc(C)cc(N3CCc4c(cc(Cn5ccnc5)cc4-c4cn(C)nc4C(F)(F)F)C3=O)c2c1` [Compound B-132], for which the Ki at WDR5 (setting [2]) is 0.03 nM. Also, in assay [1] (setting [3]), the GI50 is under 20 nM.
As for `CCc1cc(C2CCOCC2)c2nc(C)cc(N3CCc4c(cc(Cn5ccnc5)cc4-c4cn(C)nc4C(F)(F)F)C3=O)c2c1` [Compound B-165], the Ki at WDR5 (setting [2]) amounted to 0.042 nM. In addition, the GI50 in assay [1] (setting [3]) was 129 nM.
On to `CCc1cc(C(=O)NCCN(C)C)c2nccc(N3CCc4c(cc(Cn5ccnc5)cc4-c4cn(C)nc4C(F)(F)F)C3=O)c2c1` [Compound B-166], for which the Ki on WDR5 (setting [2]) came to 0.029 nM. The GI50 in assay [1] (setting [4]) is under 20 nM.
`COc1cc(N2C[C@H]3CN(C)C[C@H]3C2)c2nc(C)cc(N3CCc4c(cc(Cn5ccnc5)cc4-c4cn(C)nc4C(F)(F)F)C3=O)c2c1` [Compound B-197]: the Ki on WDR5 (setting [2]) was determined as 0.02 nM. Besides, the GI50 in assay [1] (setting [3]) was under 20 nM.
On the same counts, the results for `COc1cc(C(=O)Nc2cn[nH]c2)c2nc(C)cc(N3CCc4c(cc(Cn5ccnc5)cc4-c4cn(C)nc4C(F)(F)F)C3=O)c2c1` [Compound B-201] are 0.023 nM and 23 nM.
On the same counts, the results for `COc1cc(C(=O)NC2CN(C(=O)C3CCOCC3)C2)c2nccc(N3CCc4c(cc(Cn5ccnc5)cc4-c4cn(C)nc4C(F)(F)F)C3=O)c2c1` [Compound B-229] are under 0.02 nM and 26 nM.
In the case of `CCc1cc(N)c2nccc(N3CCc4c(cc(Cn5ccnc5)cc4-c4cn(C)nc4C(F)(F)F)C3=O)c2c1` [Compound B-230], in assay [1] (setting [4]), the GI50 was determined as 54 nM.
Take `CCc1cc(NC(C)=O)c2nccc(N3CCc4c(cc(Cn5ccnc5)cc4-c4cn(C)nc4C(F)(F)F)C3=O)c2c1` [Compound B-231]: the GI50 in assay [1] (setting [3]) was under 20 nM.
Turning to `CCc1cc(NC(=O)CC2CN(C(=O)C3CCOCC3)C2)c2nccc(N3CCc4c(cc(Cn5ccnc5)cc4-c4cn(C)nc4C(F)(F)F)C3=O)c2c1` [Compound B-233], the Ki on WDR5 (setting [2]) is under 0.02 nM. The GI50 in assay [1] (setting [3]) stood at 26 nM.
With `CCc1cc(C(=O)NC2CN(C(=O)c3ccncc3)C2)c2nccc(N3CCc4c(cc(Cn5ccnc5)cc4-c4cn(C)nc4C(F)(F)F)C3=O)c2c1` [Compound B-242], on WDR5 (setting [2]), the Ki is under 0.02 nM. In addition, in assay [1] (MV4;11 cells, read-out: GI50 for additional WDR5 inhibitor compounds on cellular proliferation of MV4;11 human cancer cell lines), the GI50 amounted to 29 nM.
On to `COc1cnc2cc(C)cc(N3CCc4c(cc(Cn5ccnc5C)cc4-c4cn(C)nc4C(F)(F)F)C3=O)c2c1` [Example 2, 2-(3-Methoxy-7-methylquinolin-5-yl)-7-((2-methyl-1H-imidazol-1-yl)methyl)-5-(1-methyl-3-(trifluoromethyl)-1H-pyrazol-4-yl)-3,4-dihydroisoquinolin-1(2H)-one], for which the Ki at WDR5 (setting [5]) was under 0.02 nM. The GI50 in assay [1] (setting [6]) is under 20 nM.
On the same counts, the results for `CCc1cc(C(=O)NC)c2nccc(N3CCc4c(cc(Cn5ccnc5C)cc4-c4cn(C)nc4C(F)(F)F)C3=O)c2c1` [Example 5, 6-Ethyl-N-methyl-4-(7-((2-methyl-1H-imidazol-1-yl)methyl)-5-(1-methyl-3-(trifluoromethyl)-1H-pyrazol-4-yl)-1-oxo-3,4-dihydroisoquinolin-2(1H)-yl)quinoline-8-carboxamide] are under 0.02 nM and under 20 nM.
On the same counts, the results for `CCc1cc(C(N)=O)c2nccc(N3CCc4c(cc(Cn5ccnc5C)cc4-c4cn(C)nc4C(F)(F)F)C3=O)c2c1` [Example 6, 6-Ethyl-4-(7-((2-methyl-11H-imidazol-1-yl)methyl)-5-(1-methyl-3-(trifluoromethyl)-1H-pyrazol-4-yl)-1-oxo-3,4-dihydroisoquinolin-2(1H)-yl)quinoline-8-carboxamide] are under 0.02 nM and under 20 nM.
On the same counts, the results for `CCc1cc2c(N3CCc4c(cc(Cn5ccnc5)cc4-c4cn(C)nc4C(F)(F)F)C3=O)ccnc2c(=O)[nH]1` [Example 7, 4-(7-((1H-Imidazol-1-yl)methyl)-5-(1-methyl-3-(trifluoromethyl)-1H-pyrazol-4-yl)-1-oxo-3,4-dihydroisoquinolin-2(1H)-yl)-6-ethyl-1,7-naphthyridin-8(7H)-one and 7-((1H-imidazol-1-yl)methyl)-2-(6-ethyl-8-hydroxy-1,7-naphthyridin-4-yl)-5-(1-methyl-3-(trifluoromethyl)-1H-pyrazol-4-yl)-3,4-dihydroisoquinolin-1(2H)-one mixture] are under 0.02 nM and 1990 nM.
In the case of `CCc1cc2c(N3CCc4c(cc(Cn5ccnc5)cc4-c4cn(C)nc4C(F)(F)F)C3=O)ccnc2c(NC)n1` [Example 9, 7-((1H-Imidazol-1-yl)methyl)-2-(6-ethyl-8-(methylamino)-1,7-naphthyridin-4-yl)-5-(1-methyl-3-(trifluoromethyl)-1H-pyrazol-4-yl)-3,4-dihydroisoquinolin-1(2H)-one], the inhibition constant (Ki) on WDR5 (setting [5]) was under 0.02 nM. In assay [1] (setting [6]), the GI50 is 102 nM.
`CCc1cc2c(N3CCc4c(cc(Cn5ccnc5C)cc4-c4cn(C)nc4C(F)(F)F)C3=O)ccnc2c(OC)n1` [Example 10, 2-(6-Ethyl-8-methoxy-1,7-naphthyridin-4-yl)-7-((2-methyl-1H-imidazol-1-yl)methyl)-5-(1-methyl-3-(trifluoromethyl)-1H-pyrazol-4-yl)-3,4-dihydroisoquinolin-1(2H)-one]: on WDR5 (setting [5]), the Ki is under 0.02 nM. Also, the GI50 in assay [1] (setting [6]) was under 20 nM.
On the same counts, the results for `CCc1cnc2c(c1)[C@@H](N1CCc3c(cc(Cn4ccnc4)cc3-c3cn(C)nc3C(F)(F)F)C1=O)CCO2` [Example 11, (S)-7-((1H-Imidazol-1-yl)methyl)-2-(6-ethyl-3,4-dihydro-2H-pyrano[2,3-b]pyridin-4-yl)-5-(1-methyl-3-(trifluoromethyl)-1H-pyrazol-4-yl)-3,4-dihydroisoquinolin-1(2H)-one] are under 0.02 nM and under 20 nM.
On the same counts, the results for `COc1cc2c(N3CCc4c(cc(Cn5ccnc5)cc4-c4cn(C)nc4C(F)(F)F)C3=O)ccnc2c(OC)n1` [Example 12, 7-((1H-Imidazol-1-yl)methyl)-2-(6,8-dimethoxy-1,7-naphthyridin-4-yl)-5-(1-methyl-3-(trifluoromethyl)-1H-pyrazol-4-yl)-3,4-dihydroisoquinolin-1(2H)-one] are under 0.02 nM and 42 nM.
With `CCc1cc(OC)c2nncc(N3CCc4c(cc(Cn5ccnc5)cc4-c4cn(C)nc4C(F)(F)F)C3=O)c2c1` [Example 13, 7-((1H-Imidazol-1-yl)methyl)-2-(6-ethyl-8-methoxycinnolin-4-yl)-5-(1-methyl-3-(trifluoromethyl)-1H-pyrazol-4-yl)-3,4-dihydroisoquinolin-1(2H)-one], the Ki at WDR5 (setting [5]) is under 0.02 nM. The GI50 in assay [1] (setting [6]) was under 20 nM.
